Experimental data published in ChEMBL document CHEMBL3232931 (J Med Chem, 2014).

Columns and labels:
[1] = biological target: T1, Sentrin-specific protease 8 (Homo sapiens) (UniProt Q96LD8); experiment: Inhibition of human DEN1 using Nedd8-EKL as substrate at 31 uM
T1 sequence (whole entry): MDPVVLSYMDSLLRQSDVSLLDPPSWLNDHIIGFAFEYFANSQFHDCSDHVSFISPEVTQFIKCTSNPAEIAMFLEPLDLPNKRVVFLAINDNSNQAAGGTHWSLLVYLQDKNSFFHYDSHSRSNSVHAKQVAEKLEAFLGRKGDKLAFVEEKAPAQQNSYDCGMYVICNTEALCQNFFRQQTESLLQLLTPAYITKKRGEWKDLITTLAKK

[2] = biological target: T2, Sentrin-specific protease 8 (Homo sapiens, UniProt Q96LD8); experiment: Inhibition of human DEN1 using Nedd8-EKL as substrate
T2 sequence (Q96LD8 whole entry): T1 sequence (whole entry)

[3] = biological target: T3, Ubiquitin carboxyl-terminal hydrolase isozyme L1 (Homo sapiens, UniProt P09936); experiment: Inhibition of human UCHL1
T3 sequence (P09936 whole entry): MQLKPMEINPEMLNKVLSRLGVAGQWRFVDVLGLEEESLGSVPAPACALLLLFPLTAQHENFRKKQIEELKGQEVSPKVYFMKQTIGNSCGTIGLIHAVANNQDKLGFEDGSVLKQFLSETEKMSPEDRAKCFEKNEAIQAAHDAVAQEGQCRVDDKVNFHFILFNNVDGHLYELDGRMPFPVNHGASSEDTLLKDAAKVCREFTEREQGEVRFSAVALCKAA

CC(=O)Nc1cccc(CNC(=O)C2CCN([C@H](C)c3cccc4ccccc34)CC2)c1
inhibition [1]: < 10%
IC50 [2]: Not Active
IC50 [3]: Not Active

C[C@H](c1cccc2ccccc12)N1CCC(C(=O)NCc2cccc(F)c2)CC1
inhibition [1]: < 10%
IC50 [2]: Not Active
IC50 [3]: Not Active

C[C@H](c1cccc2ccccc12)N1CCC(C(=O)NCc2ccc(F)cc2)CC1
inhibition [1]: < 10%
IC50 [2]: Not Active
IC50 [3]: Not Active

C[C@H](c1cccc2ccccc12)N1CCC(C(=O)NCc2ccc3c(c2)OCO3)CC1
inhibition [1]: < 10%
IC50 [2]: Not Active
IC50 [3]: Not Active
